Assay results: US11472772B2, “S1P3 antagonists” (Teva Pharmaceutical Industries, Ltd., priority 2013, dated 2022)

Tests used:
Format in all cases: in vivo, rat
[1] = system: quisqualic acid lesioned rats; assay: Object Recognition Test (ORT) on quisqualic acid lesioned rats; conditions: exploration time of familiar vs novel object
Method: QUIS-treated animals can also undergo the Object Recognition Test (ORT, measuring episodic memory) or other behavioural tests to measure the improvement of cognitive functions upon treatment with a compound of the invention.
(§1) Three-month old male Wistar rats (Harlan, Milan, Italy) weighing 230-250 g were used. The rats were housed in macrolon cages with ad lib food and water and maintained on a 12 h light/dark cycle at 23° C. room temperature (RT). All experiments were carried out according to the guidelines of the European Community's Council for Animal Experiments (86/609/EEC). Efforts were made to minimize the number of animals used and their suffering. […]
Object recognition was evaluated according to Ennanceur and Delacour (1988) and Scali et al., (1997). […] The times spent exploring the familiar (F) and the new object (N) were recorded separately and the difference between the two exploration times was taken. […]

[2] = system: Abeta(25-35) lesioned rats; assay: Abeta(25-35) peptide injection in NBM of rats: GFAP staining; conditions: 30 mg/kg, Kruskall-Wallis
Description: (§2) The efficacy of the compounds of the invention on neurodegeneration and neuroinflammation can be evaluated with two different methodological approaches aimed to reproduce some pathological features of Alzheimer's disease: • 1) the excitotoxic insult (quisqualic acid—QUIS) in the Nucleus Basalis Magnocellularis (NBM), characterized by severe neurodegeneration of cholinergic neurons along with significant neuroinflammation. • 2) the β-amyloid peptide 25-35 (Aβ25-35) injection in NBM of rats, inducing a significant glia reaction around Aβ25-35 deposits with modest toxicity on cholinergic neurons. • Readouts are based on immunochemical analysis and are: count of cholinergic neurons (ChAT-positive), astrocytes (GFAP-positive) and microglia (OX-42 or Iba-1 positive). The analysis is performed by two different approaches, the visual scoring (blind) and the digital platform APERIO®.
as §1

[3] = system: quisqualic acid lesioned rats; assay: Quisqualic acid (QUIS) injection in Nucleus Basalis Magnocellularis of rats: immunohistochemistry for neurodegeneration and neuroinflammation (ChAT, GFAP, OX42)
Description: as §2
Three-month old male Wistar rats (Harlan, Milan, Italy) weighing 230-250 g were used. The rats were housed in macrolon cages with ad lib food and water and maintained on a 12 h light/dark cycle at 23° C. room temperature (RT). All experiments were carried out according to the guidelines of the European Community's Council for Animal Experiments (86/609/EEC). Efforts were made to minimize the number of animals used and their suffering.
The quisqualic acid (Sigma Chemical Co., Milan, Italy; dissolved in phosphate buffer at the concentration of 0.12 M volume 0.5 μl) or 10 ug of ABeta(25-35) peptide (Bachem) dissolved PBS at the concentration of 10 μg/μl and aggregate at 37° for 2 h before injection volume 1 μl) was injected by means of an Hamilton microsyringe into the right NBM under chloral hydrate anaesthesia at the following stereotaxic coordinates: AP=−0.2, L=−2.8 from bregma and H=7 from the dura (Paxinos and Watson, 1982, Casamenti et al., 1998). Controlateral NBM were injected with PBS solution. The study was performed for 7 days after surgery. […]

For CCCC(C(=O)Nc1cnc(Br)cn1)c1cncc(Br)c1 (stereo not drawn) [Example 33, 2-(5-Bromo-pyridin-3-yl)-pentanoic acid (5-bromo-pyrazin-2-yl)-amide], the “Cognitive functions in ORT (episodic memory)” value [1] was “improved cognitive functions”, the “Cognitive functions in ORT (episodic memory)” value ([1]; listed as example 33) was “significantly ameliorates cognitive functions” and the “GFAP-positive cells, quantitative analysis by visual scoring” value [2] was “p<0.05 vs vehicle group”. For the same compound, the “Neuroprotective effect, rat NBM ChAT-positive neuron counts (APERIO)” value ([3]; 30 and 60 mg/Kg/day p.o., QUIS lesioned rats) was “strong neuroprotective effects”, the “Anti-neuroinflammatory effect on astrocytes, GFAP reactivity” value ([3]; 30 and 60 mg/Kg/day, QUIS lesioned rats) was “strong activity on GFAP reactivity” and the “Anti-neuroinflammatory and neuroprotective activity in the in vivo assays (FIGS. 1-3)” value ([3]; doses ranging 10 to 60 mg/kg) was “anti-neuroinflammatory and neuroprotective activity”.
